Results from the kinase profiling compilation of Christmann-Franck et al. (2016).
Where “and” joins values, the source holds several entries; their conditions need not be identical. Identical values can stand only once.

Columns and labels:
Test in all cases: KINOMEscan competition binding
Settings in all cases: compound 10.0 µM
PTK2 (human) = PTK2 (human) (UniProt Q05397)
BLK (human) = BLK (human) (UniProt P51451)
RPS6KA2 KD2 (human) = RPS6KA2 KD2 (human) (UniProt Q15349)
MARK4 (human) = MARK4 (human) (UniProt Q96L34)
TAOK1 (human) = TAOK1 (human) (UniProt Q7L7X3)
TXK (human) = TXK (human) (UniProt P42681)
PIM3 (human) = PIM3 (human) (UniProt Q86V86)
AURKA (human) = AURKA (human) (UniProt O14965)
HIPK1 (human) = HIPK1 (human) (UniProt Q86Z02)
GSK3B (human) = GSK3B (human) (UniProt P49841)
PIK3CB (human) = PIK3CB (human) (UniProt P42338)
CDK14 (human) = CDK14 (human) (UniProt O94921)
STK25 (human) = STK25 (human) (UniProt O00506)
CDK3 (human) = CDK3 (human) (UniProt Q00526)
[1] = target: JAK1 JH2 pseudokinase (human) (UniProt P23458)
MAPK7 (human) = MAPK7 (human) (UniProt Q13164)
STK24 (human) = STK24 (human) (UniProt Q9Y6E0)
LATS1 (human) = LATS1 (human) (UniProt O95835)
EPHA7 (human) = EPHA7 (human) (UniProt Q15375)
BRSK1 (human) = BRSK1 (human) (UniProt Q8TDC3)
MAP3K12 (human) = MAP3K12 (human) (UniProt Q12852)
RPS6KA2 KD1 (human) = RPS6KA2 KD1 (human) (UniProt Q15349)
RIPK4 (human) = RIPK4 (human) (UniProt P57078)
PKN2 (human) = PKN2 (human) (UniProt Q16513)
CSNK1E (human) = CSNK1E (human) (UniProt P49674)
CSF1R (human) = CSF1R (human) (UniProt P07333)
SYK (human) = SYK (human) (UniProt P43405)
SRC (human) = SRC (human) (UniProt P12931)
RIOK1 (human) = RIOK1 (human) (UniProt Q9BRS2)
PKN1 (human) = PKN1 (human) (UniProt Q16512)
MYLK4 (human) = MYLK4 (human) (UniProt Q86YV6)
PTK2B (human) = PTK2B (human) (UniProt Q14289)
RET (human) = RET (human) (UniProt P07949)
RIPK1 (human) = RIPK1 (human) (UniProt Q13546)
STK36 (human) = STK36 (human) (UniProt Q9NRP7)
CDK19 (human) = CDK19 (human) (UniProt Q9BWU1)
PLK3 (human) = PLK3 (human) (UniProt Q9H4B4)
MARK1 (human) = MARK1 (human) (UniProt Q9P0L2)
STK16 (human) = STK16 (human) (UniProt O75716)
FGFR4 (human) = FGFR4 (human) (UniProt P22455)

Sequence of PLK3 (human) (Q9H4B4 whole entry, looked up): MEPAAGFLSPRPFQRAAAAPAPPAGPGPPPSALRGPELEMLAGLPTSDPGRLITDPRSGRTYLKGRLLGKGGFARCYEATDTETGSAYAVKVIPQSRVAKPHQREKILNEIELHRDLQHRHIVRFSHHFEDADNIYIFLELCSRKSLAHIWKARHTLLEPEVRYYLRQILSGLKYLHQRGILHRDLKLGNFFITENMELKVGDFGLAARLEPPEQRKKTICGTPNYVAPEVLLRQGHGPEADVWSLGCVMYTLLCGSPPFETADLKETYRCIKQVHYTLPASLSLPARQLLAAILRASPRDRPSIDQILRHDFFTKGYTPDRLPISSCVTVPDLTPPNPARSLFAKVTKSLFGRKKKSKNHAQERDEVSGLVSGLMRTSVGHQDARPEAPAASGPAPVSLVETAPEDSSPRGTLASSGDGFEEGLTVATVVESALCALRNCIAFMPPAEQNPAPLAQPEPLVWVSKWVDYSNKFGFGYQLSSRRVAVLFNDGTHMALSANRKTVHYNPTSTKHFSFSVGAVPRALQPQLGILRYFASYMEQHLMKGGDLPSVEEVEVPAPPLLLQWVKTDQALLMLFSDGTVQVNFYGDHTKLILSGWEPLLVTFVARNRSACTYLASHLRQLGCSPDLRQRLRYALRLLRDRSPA
Sequence of MARK1 (human) (Q9P0L2 whole entry, looked up): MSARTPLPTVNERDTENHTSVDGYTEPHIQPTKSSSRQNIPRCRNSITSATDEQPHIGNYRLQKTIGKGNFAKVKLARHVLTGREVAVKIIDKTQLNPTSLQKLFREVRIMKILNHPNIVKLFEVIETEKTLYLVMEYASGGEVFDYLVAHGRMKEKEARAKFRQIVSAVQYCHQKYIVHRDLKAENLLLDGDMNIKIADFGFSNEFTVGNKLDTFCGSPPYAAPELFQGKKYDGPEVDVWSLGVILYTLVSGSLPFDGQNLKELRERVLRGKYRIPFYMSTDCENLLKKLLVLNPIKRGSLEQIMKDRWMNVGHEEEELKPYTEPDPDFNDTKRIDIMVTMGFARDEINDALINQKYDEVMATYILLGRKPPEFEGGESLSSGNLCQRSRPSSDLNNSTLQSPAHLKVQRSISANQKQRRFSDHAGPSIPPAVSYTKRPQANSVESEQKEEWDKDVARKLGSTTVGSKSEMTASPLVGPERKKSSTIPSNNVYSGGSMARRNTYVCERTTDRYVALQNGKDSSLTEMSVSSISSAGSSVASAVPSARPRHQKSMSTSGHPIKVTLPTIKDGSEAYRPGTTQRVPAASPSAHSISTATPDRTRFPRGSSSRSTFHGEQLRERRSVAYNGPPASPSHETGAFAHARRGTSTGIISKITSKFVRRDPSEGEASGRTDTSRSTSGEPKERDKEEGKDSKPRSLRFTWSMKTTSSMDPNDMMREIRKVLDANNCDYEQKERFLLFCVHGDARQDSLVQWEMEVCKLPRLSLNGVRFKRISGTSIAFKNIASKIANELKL
Sequence of MAPK7 (human) (Q13164 whole entry, looked up): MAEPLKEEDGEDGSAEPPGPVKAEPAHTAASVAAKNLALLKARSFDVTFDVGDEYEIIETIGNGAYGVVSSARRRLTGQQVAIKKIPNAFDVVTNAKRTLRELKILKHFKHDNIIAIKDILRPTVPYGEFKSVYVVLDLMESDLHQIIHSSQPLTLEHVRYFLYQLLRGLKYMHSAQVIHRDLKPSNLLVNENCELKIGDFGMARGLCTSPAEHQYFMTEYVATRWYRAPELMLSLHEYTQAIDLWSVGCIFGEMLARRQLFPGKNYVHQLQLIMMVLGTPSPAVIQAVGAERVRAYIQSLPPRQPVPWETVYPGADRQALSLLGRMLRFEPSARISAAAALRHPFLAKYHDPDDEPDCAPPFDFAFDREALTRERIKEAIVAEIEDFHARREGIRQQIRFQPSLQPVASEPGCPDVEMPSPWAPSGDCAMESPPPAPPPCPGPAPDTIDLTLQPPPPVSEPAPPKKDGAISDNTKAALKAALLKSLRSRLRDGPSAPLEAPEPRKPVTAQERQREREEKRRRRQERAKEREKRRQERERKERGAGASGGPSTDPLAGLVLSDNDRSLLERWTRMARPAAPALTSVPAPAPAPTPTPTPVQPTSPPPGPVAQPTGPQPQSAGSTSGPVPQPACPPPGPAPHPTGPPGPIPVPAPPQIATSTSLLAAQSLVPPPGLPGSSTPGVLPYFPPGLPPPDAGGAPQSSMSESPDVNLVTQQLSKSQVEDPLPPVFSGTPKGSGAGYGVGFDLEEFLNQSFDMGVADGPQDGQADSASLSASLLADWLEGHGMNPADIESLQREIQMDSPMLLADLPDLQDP
Sequence of AURKA (human) (O14965 whole entry, looked up): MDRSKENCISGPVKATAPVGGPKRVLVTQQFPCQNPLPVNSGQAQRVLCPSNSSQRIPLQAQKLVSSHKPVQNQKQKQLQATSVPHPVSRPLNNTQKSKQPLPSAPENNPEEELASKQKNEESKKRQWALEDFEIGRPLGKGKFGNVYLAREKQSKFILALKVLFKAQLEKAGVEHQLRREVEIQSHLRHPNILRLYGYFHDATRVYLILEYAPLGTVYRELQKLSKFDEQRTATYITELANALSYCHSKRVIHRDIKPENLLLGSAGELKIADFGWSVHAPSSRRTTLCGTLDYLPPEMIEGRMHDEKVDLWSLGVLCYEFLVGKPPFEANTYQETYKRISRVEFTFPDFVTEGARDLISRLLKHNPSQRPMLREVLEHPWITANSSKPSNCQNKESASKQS
Sequence of RIPK1 (human) (Q13546 whole entry, looked up): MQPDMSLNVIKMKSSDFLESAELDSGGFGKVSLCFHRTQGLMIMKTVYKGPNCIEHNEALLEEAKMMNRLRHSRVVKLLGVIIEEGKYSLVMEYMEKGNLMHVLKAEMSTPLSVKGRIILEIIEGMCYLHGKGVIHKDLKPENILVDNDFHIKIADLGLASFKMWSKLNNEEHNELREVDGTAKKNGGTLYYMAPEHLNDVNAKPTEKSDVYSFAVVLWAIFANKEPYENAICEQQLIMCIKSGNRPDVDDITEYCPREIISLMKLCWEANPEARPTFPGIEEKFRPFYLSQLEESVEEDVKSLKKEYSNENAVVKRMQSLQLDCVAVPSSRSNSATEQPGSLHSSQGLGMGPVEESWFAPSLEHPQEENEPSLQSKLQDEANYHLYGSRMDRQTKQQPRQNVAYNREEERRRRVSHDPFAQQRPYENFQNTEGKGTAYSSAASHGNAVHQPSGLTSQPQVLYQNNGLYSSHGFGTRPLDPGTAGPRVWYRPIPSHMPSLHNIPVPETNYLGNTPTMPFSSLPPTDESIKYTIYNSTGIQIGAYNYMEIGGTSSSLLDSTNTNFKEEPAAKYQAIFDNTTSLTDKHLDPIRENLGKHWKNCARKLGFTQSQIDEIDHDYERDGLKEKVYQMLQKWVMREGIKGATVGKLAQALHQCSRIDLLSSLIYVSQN
Sequence of MYLK4 (human) (Q86YV6 whole entry, looked up): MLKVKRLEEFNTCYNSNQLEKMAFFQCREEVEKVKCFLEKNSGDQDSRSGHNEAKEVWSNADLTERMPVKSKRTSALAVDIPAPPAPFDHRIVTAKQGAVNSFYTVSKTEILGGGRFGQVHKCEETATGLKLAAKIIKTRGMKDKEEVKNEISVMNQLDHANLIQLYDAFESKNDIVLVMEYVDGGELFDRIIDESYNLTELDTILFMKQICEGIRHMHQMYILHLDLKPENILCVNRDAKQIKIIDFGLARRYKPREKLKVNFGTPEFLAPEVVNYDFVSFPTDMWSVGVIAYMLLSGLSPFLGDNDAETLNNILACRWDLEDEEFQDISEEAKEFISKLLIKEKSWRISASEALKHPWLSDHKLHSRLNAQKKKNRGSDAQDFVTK
Sequence of TXK (human) (P42681 whole entry, looked up): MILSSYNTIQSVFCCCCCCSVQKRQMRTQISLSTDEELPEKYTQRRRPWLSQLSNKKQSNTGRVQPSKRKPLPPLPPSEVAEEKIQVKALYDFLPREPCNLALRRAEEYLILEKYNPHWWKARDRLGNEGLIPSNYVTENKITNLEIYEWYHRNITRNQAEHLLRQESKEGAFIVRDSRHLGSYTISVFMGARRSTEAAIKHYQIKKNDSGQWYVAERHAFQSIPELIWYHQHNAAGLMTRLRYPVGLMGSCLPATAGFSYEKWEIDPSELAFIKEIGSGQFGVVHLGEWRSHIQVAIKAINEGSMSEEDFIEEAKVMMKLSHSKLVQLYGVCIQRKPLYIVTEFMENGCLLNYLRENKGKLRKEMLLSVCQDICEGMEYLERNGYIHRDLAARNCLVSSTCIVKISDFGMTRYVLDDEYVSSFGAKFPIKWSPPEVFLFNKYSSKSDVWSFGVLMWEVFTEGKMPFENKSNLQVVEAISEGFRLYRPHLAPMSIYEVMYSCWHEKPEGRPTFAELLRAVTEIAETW
Sequence of SRC (human) (P12931 whole entry, looked up): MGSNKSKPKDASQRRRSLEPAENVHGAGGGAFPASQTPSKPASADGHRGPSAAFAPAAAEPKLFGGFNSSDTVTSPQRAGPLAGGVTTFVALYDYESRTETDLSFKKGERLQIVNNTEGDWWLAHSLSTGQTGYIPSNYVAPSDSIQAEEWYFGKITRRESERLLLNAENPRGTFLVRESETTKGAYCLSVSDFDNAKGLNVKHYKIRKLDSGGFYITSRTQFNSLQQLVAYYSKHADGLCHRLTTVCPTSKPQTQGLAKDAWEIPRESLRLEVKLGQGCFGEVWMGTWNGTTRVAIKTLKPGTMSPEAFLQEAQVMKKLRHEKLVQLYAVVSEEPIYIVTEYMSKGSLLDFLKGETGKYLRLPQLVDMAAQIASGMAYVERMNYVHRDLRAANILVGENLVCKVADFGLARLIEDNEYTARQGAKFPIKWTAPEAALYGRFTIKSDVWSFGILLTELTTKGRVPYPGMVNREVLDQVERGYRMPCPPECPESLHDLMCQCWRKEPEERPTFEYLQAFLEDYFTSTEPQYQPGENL

Row | SMILES | kinase still bound, per cent of control (PTK2 (human)) [%] | kinase still bound, per cent of control (BLK (human)) [%] | kinase still bound, per cent of control (RPS6KA2 KD2 (human)) [%] | kinase still bound, per cent of control (MARK4 (human)) [%] | kinase still bound, per cent of control (TAOK1 (human)) [%] | kinase still bound, per cent of control (TXK (human)) [%] | kinase still bound, per cent of control (PIM3 (human)) [%] | kinase still bound, per cent of control (AURKA (human)) [%] | kinase still bound, per cent of control (HIPK1 (human)) [%] | kinase still bound, per cent of control (GSK3B (human)) [%] | kinase still bound, per cent of control (PIK3CB (human)) [%] | kinase still bound, per cent of control (CDK14 (human)) [%] | kinase still bound, per cent of control (STK25 (human)) [%] | kinase still bound, per cent of control (CDK3 (human)) [%] | kinase still bound, per cent of control [1] [%] | kinase still bound, per cent of control (MAPK7 (human)) [%] | kinase still bound, per cent of control (STK24 (human)) [%] | kinase still bound, per cent of control (LATS1 (human)) [%] | kinase still bound, per cent of control (EPHA7 (human)) [%] | kinase still bound, per cent of control (BRSK1 (human)) [%] | further results
1 | O=C(NOC[C@H](O)CO)c1ccc(F)c(F)c1Nc1ccc(I)cc1F | 85 | 83 | 92 | 100 | 100 | 100 | 100 | 100 | 91 | 68 | 100 | 100 | 91 | 69 | 100 | 88 | 88 | 100 | 94 | 100 | kinase still bound, per cent of control (MAP3K12 (human)): 78%; kinase still bound, per cent of control (RPS6KA2 KD1 (human)): 100%; kinase still bound, per cent of control (RIPK4 (human)): 100%; kinase still bound, per cent of control (PKN2 (human)): 100%; kinase still bound, per cent of control (CSNK1E (human)): 100%; kinase still bound, per cent of control (CSF1R (human)): 100% and 80%; kinase still bound, per cent of control (SYK (human)): 100%; kinase still bound, per cent of control (SRC (human)): 69%; kinase still bound, per cent of control (RIOK1 (human)): 95%; kinase still bound, per cent of control (PKN1 (human)): 100%; kinase still bound, per cent of control (MYLK4 (human)): 100%; kinase still bound, per cent of control (PTK2B (human)): 98%; kinase still bound, per cent of control (RET (human)): 90%; kinase still bound, per cent of control (RIPK1 (human)): 85%; kinase still bound, per cent of control (STK36 (human)): 74%; kinase still bound, per cent of control (CDK19 (human)): 100%; kinase still bound, per cent of control (PLK3 (human)): 100%; kinase still bound, per cent of control (MARK1 (human)): 100%; kinase still bound, per cent of control (STK16 (human)): 99%; kinase still bound, per cent of control (FGFR4 (human)): 54%
2 | O=C1Nc2ccc(I)cc2/C1=C/c1cc(Br)c(O)c(Br)c1 | 98 | 41 | 45 | 100 | 54 | 100 | 2 | 65 | 11 | 91 | 100 | 95 | 100 | 90 | 0.55 | 5 | 97 | 44 | 100 | 85 | kinase still bound, per cent of control (MAP3K12 (human)): 80%; kinase still bound, per cent of control (RPS6KA2 KD1 (human)): 58%; kinase still bound, per cent of control (RIPK4 (human)): 76%; kinase still bound, per cent of control (PKN2 (human)): 99%; kinase still bound, per cent of control (CSNK1E (human)): 84%; kinase still bound, per cent of control (CSF1R (human)): 71%; kinase still bound, per cent of control (SYK (human)): 78%; kinase still bound, per cent of control (SRC (human)): 100%; kinase still bound, per cent of control (RIOK1 (human)): 14%; kinase still bound, per cent of control (PKN1 (human)): 89%; kinase still bound, per cent of control (MYLK4 (human)): 14%; kinase still bound, per cent of control (PTK2B (human)): 81%; kinase still bound, per cent of control (RET (human)): 100%; kinase still bound, per cent of control (RIPK1 (human)): 85%; kinase still bound, per cent of control (STK36 (human)): 14%; kinase still bound, per cent of control (CDK19 (human)): 63%; kinase still bound, per cent of control (PLK3 (human)): 86%; kinase still bound, per cent of control (MARK1 (human)): 99%; kinase still bound, per cent of control (STK16 (human)): 90%; kinase still bound, per cent of control (FGFR4 (human)): 100%
3 | Cn1c(=O)n(-c2ccc(C(C)(C)C#N)cc2)c2c3cc(-c4cnc5ccccc5c4)ccc3ncc21 | 100 | 100 | 100 | 100 | 100 | 100 | 100 | 100 | 100 | 100 | 22 | 100 | 100 | 100 | 100 | 100 | 100 | 100 | 100 | 100 | kinase still bound, per cent of control (MAP3K12 (human)): 100%; kinase still bound, per cent of control (RPS6KA2 KD1 (human)): 100%; kinase still bound, per cent of control (RIPK4 (human)): 100%; kinase still bound, per cent of control (PKN2 (human)): 100%; kinase still bound, per cent of control (CSNK1E (human)): 100%; kinase still bound, per cent of control (CSF1R (human)): 100%; kinase still bound, per cent of control (SYK (human)): 100%; kinase still bound, per cent of control (SRC (human)): 100%; kinase still bound, per cent of control (RIOK1 (human)): 100%; kinase still bound, per cent of control (PKN1 (human)): 100%; kinase still bound, per cent of control (MYLK4 (human)): 100%; kinase still bound, per cent of control (PTK2B (human)): 100%; kinase still bound, per cent of control (RET (human)): 100%; kinase still bound, per cent of control (RIPK1 (human)): 100%; kinase still bound, per cent of control (STK36 (human)): 100%; kinase still bound, per cent of control (CDK19 (human)): 100%; kinase still bound, per cent of control (PLK3 (human)): 100%; kinase still bound, per cent of control (MARK1 (human)): 100%; kinase still bound, per cent of control (STK16 (human)): 100%; kinase still bound, per cent of control (FGFR4 (human)): 100%
